# Like-named read-outs stand apart in the source and are kept apart here.
# Tests used:
# dopamine D1 receptor = molecular target: T1, dopamine D1 receptor (Rattus norvegicus, UniProt P18901); assay: binding to dopamine D1 receptor in homogenates from rat striatum
# T1 construct: homogenates from rat striatum; from tissue; host or cells: rat striatum homogenate
# Text: Ki is the affinity of tested compounds for the dopamine D1 receptor.
# [1] = antagonism of methylphenidate-induced stereotyped gnawing in mice; details: mouse, in vivo
# Text: (§1) Following the method of Pedersen, V. and Christensen, A.V.: "Antagonism of methylphenidate-induced stereotyped gnawing in mice", Acta Pharmacol. et Toxicol. 31: 488-496, 1972, antagonism of dopamine-dependent, methyl-phenidate-induced gnawing behaviour of mice, was used to assess the effects of the present D-1 antagonists. Further, the ratio of ED50 values obtained using i.v. administration and oral administration, respectively, was taken as an index of the bioavailability of the test drugs.
# [2] = system: methyl-phenidate-induced gnawing behaviour of mice; assay: as above; details: Mus musculus
# Text: as §1
# in vivo = assay: in vivo; design: species or system mongrel dogs; details: dog, po
# Description: As already mentioned, the benzazepines of the general formula given in Table II with X representing halogen have a low oral bioavailability. […] Some test results are stated in the following.
# The benzazepines are administered orally to dogs and subsequently samples of their blood plasma are analysed for the compound by a specific HPLC-method. The area under the curve showing the oral plasma concentration versus time is calculated. This area is designated […].
# The absolute oral bioavailability, F, is calculated as the ratio between the area representing the oral dose and the area for the intravenous dose according to the formula [formula]
# [3] = in words; Life Sci. 34 (1984) 1529; cited from earlier work
# D1 dopamine = details: in words; Eur.J.Pharmacol. 91 (1983) 153; cited from earlier work
# [4] = Table I, rat striatum homogenates, (+) enantiomere or racemic mixtures, read-out: Ki Dopamine D1 receptor
# [5] = Table II, unit inferred, read-out: Ki
# T1 sequence (P18901 whole entry): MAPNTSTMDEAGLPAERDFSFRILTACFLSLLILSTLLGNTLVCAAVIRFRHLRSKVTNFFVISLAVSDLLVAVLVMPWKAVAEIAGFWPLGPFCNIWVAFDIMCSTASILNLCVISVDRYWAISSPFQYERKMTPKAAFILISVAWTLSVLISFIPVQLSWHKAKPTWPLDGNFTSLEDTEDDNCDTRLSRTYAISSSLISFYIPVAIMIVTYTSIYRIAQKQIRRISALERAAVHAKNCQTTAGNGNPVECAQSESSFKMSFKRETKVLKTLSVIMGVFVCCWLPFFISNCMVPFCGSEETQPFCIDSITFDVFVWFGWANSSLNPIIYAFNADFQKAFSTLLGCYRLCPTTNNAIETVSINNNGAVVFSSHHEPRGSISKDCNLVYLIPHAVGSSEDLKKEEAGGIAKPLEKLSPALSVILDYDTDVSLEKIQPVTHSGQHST
SMILES,Ki (dopamine D1 receptor; [4]),Ki (dopamine D1 receptor; [5]),selectivity ratio [1],"ED50 ([2]; iv, read-out: ED50 i.v.)","ED50 ([2]; po, read-out: ED50 p.o.)",other results
"CN1CCc2cc([N+](=O)[O-])c(O)cc2[C@@H](c2ccccc2)C1 [Example 4, (R)-7-hydroxy-3-methyl-8-nitro-5-phenyl-2,3,4,5-tetrahydro-1H-3-benzazepine]",13 nM,13 nM,2.2,5.4 mg/kg,11.9 mg/kg,
"CN1CCc2cc([N+](=O)[O-])c(O)cc2[C@@H]2c3ccccc3CC[C@H]21 (relative stereo) [Example 7, trans-[6,7,7a,8,9,13b]-hexahydro-2-hydroxy-7-methyl-3-nitro-5H-benzo[d]naphto[2,1-b]azepine]",169 nM,,,,,
"CN1CCc2cc([N+](=O)[O-])c(O)cc2C(c2ccc3c(c2)CCC3)C1 (stereo not shown) [Example 6, 7-hydroxy-5-(5-indanyl)-3-methyl-8-nitro-2,3,4,5-tetrahydro-1H-3-benzazepine]",88 nM,,,,,
"CN1CCc2cc([N+](=O)[O-])c(O)cc2C(c2ccccc2F)C1 (stereo not shown) [Example 1, 5-(2-fluorophenyl)-7-hydroxy-3-methyl-8-nitro-2,3,4,5-tetrahydro-1H-3-benzazepine]",42 nM,,,,,
"CN1CCc2cc(Cl)c(O)cc2[C@@H](c2ccccc2)C1 [SCH 23390, (R)-8-chloro-7-hydroxy-2,3,4,5-tetrahydro-3-methyl-5-phenyl-1H-3-benzazepine]",,,,0.017 mg/kg,6.5 mg/kg,bioavailability after oral administration [3]: poor bioavailability after oral administration; duration of action [3]: short duration of action; D1 dopamine antagonism (D1 dopamine): selective D1 dopamine antagonist

# Further lines, with some results ahead:
Ki (dopamine D1 receptor; [4]),Ki (dopamine D1 receptor; [5]),SMILES,selectivity ratio [1],"ED50 ([2]; iv, read-out: ED50 i.v.)","ED50 ([2]; po, read-out: ED50 p.o.)",other results
11 nM,4.6 nM,"CN1CCc2cc([N+](=O)[O-])c(O)cc2C(c2cccc3c2OCC3)C1 (single isomer, unassigned; (+)) [Example 5, (+)-5-(2,3-dihydrobenzofuran-7-yl)-7-hydroxy-3-methyl-8-nitro-2,3,4,5-tetrahydro-1H-3-benzazepine]",17.3,0.11 mg/kg,1.9 mg/kg,bioavailability (in vivo): 65%
28 nM,,"Cc1ccccc1C1CN(C)CCc2cc([N+](=O)[O-])c(O)cc21 (stereo not shown) [Example 3, 7-hydroxy-3-methyl-8-nitro-5(2-methyl-phenyl)-2,3,4 5-tetrahydro-1H-3-benzazepine]",,,,
,0.2 nM,"CN1CCc2cc(Cl)c(O)cc2C(c2cccc3c2OCC3)C1 (stereo not shown) [8-chloro-7-hydroxy-3-methyl-5-(2,3-dihydrobenzofuran-7-yl)-2,3,4,5-tetrahydro-1H-3-benzazepine, reference compound]",75,0.06 mg/kg,4.5 mg/kg,bioavailability (in vivo): 5.5%

# — patent publication US5010074A, “Novel benzazepine derivatives” (Novo Nordisk A/S, priority 1988, dated 1991)
